Here are results for three compounds from publication PMC10215355, “Chemical Composition of the Cinnamomum malabatrum Leaf Essential Oil and Analysis of Its Antioxidant, Enzyme Inhibitory and Antibacterial Activities” (Antibiotics, 2023).

One assay is described as follows: DPPH radical scavenging. The following applies: 0 to 100 µg/mL series. Here is the method:
(§1) The concentration of essential oil used was a different series from 0 to 100 μg/mL for each radical quenching assay. The quenching of DPPH radicals was analyzed using the methods of [70]. The ABTS radicals scavenging activity was analyzed according to the methods of Li et al.. The hydrogen peroxide quenching potential of the essential oil was following the methods of Munteanu and […] [72]. The ferric-reducing abilities of the essential oil were estimated according to the methods described by He et al.. The methods described by Okoh et al.
A general note: DPPH is a stable violet radical that fades when it is reduced.

The next assay addresses T1, sorbitol dehydrogenase (Homo sapiens, UniProt Q00796).
T1 sequence (Q00796 1-357): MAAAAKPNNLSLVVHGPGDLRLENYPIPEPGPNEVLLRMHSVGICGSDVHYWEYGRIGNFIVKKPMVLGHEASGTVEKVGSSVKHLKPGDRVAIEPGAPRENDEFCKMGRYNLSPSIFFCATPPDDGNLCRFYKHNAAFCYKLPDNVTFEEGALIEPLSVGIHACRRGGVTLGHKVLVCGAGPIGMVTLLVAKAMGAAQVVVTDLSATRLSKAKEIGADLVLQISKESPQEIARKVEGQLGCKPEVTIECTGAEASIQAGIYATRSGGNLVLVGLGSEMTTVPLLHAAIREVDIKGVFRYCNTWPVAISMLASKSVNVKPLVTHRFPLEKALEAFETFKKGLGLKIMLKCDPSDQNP
Put plainly: Sorbitol dehydrogenase inhibition. The assay is classed as biochemical. Particulars: 0–100 μg/mL.

The next assay in a line: ABTS radical scavenging. Particulars: 0 to 100 µg/mL series. The procedure:
as §1

For the next assay, the target named is α-amylase. Put plainly: α-Amylase inhibition. In kind it is biochemical. The following applies: 0–100 μg/mL.
The target in a further assay is aldose reductase (Homo sapiens, UniProt P15121). Put plainly: Aldose reductase inhibition. The assay is classed as biochemical. The following applies: 0–100 μg/mL.
A short description of assay [1]: H2O2 radical scavenging (hydrogen peroxide quenching). The following applies: 0 to 100 µg/mL series. The procedure: as §1
The next assay addresses α-glucosidase. Put plainly: α-Glucosidase inhibition. The following applies: 0–100 μg/mL.
Assay [2] is described as follows: Lipid peroxidation inhibition (ex vivo). Particulars: 0 to 100 µg/mL series. The procedure: as §1
For assay [3], the system named is Escherichia coli. Put plainly: Minimum inhibitory concentration (96-well, TTC). In kind it is cell-based.
Assay [4] deals with Salmonella enterica. Put plainly: Disc diffusion method. The assay is classed as cell-based. Particulars: 8 mm disc, 10 μL oil, 24 h. The text has this:
(§2) The bacteria were procured from Microbial Type Culture Collection and Gene Bank (MTCC), Chandigarh and maintained under standard conditions as prescribed by Bonnet, et al.. The bacterial strains used include Escherichia coli, Pseudomonas aeruginosa, Staphylococcus aureus, Bacillus cereus, Streptococcus pyogenes and Salmonella enterica.
Initially, the bacteria cultured were completed in Luria-Bertani broth; for the antibacterial study, the inoculum of the bacteria was made on a Mueller Hinton Agar (MHA) agar plate (Himedia, Mumbai, Maharashtra, India) at a thickness of 5 mm. Later, a filter paper disc (8 mm in diameter) containing the leaf essential oil of C. malabatrum (10 μL) was placed in the agar plate at a distance of 50 mm. At the end of 24 h, the formation of the growth inhibition zone was estimated.
(In general: In agar diffusion tests the substance spreads into inoculated agar from a disc or well.)

For assay [5], the system named is Bacillus cereus. Put plainly: Disc diffusion method. In kind it is cell-based. Particulars: 8 mm disc, 10 μL oil, 24 h.
In assay [6] the test system is Salmonella enterica. Put plainly: Minimum inhibitory concentration (96-well, TTC). In kind it is cell-based.
Excerpt: as §2
The determination of the MIC value was made according to the methods described by Campana, et al.. Before beginning, the density of the inoculum was spectrophotometrically set to 5 × 10^5 CFU/mL. From this, about 50 µL was transferred to individual wells of a 96-well plate containing different concentrations of C. malabatrum essential oil. Later, 2,3,5-triphenyltetrazolium chloride (10 µL) was added to each well; the pink color of the 2,3,5-triphenyltetrazolium chloride was lost in the absence of bacterial growth. The MIC value was considered as the lowest concentration without a detectable pink color.

Assay [7] has as its system Streptococcus pyogenes. Put plainly: Disc diffusion method. The following applies: 8 mm disc, 10 μL oil, 24 h. In kind it is cell-based.
The test system of assay [8] is Escherichia coli. Put plainly: Disc diffusion method. The assay is classed as cell-based. The following applies: 8 mm disc, 10 μL oil, 24 h.
Assay [9] deals with Staphylococcus aureus. Put plainly: Minimum inhibitory concentration (96-well, TTC). In kind it is cell-based.
Assay [10] has as its system Streptococcus pyogenes. Put plainly: Minimum inhibitory concentration (96-well, TTC). In kind it is cell-based.
The test system of assay [11] is Staphylococcus aureus. Put plainly: Disc diffusion method. In kind it is cell-based. The following applies: 8 mm disc, 10 μL oil, 24 h.
Assay [12] relates to Pseudomonas aeruginosa. Put plainly: Minimum inhibitory concentration (96-well, TTC). The assay is classed as cell-based.
The subject of assay [13] is Bacillus cereus. Put plainly: Minimum inhibitory concentration (96-well, TTC). In kind it is cell-based.
Assay [14] has as its system Pseudomonas aeruginosa. Put plainly: Disc diffusion method. The following applies: 8 mm disc, 10 μL oil, 24 h. The assay is classed as cell-based.
Assay [15] is described as follows: Ferric-reducing potential (FRAP). Particulars: 0 to 100 µg/mL series. Here is the method: as §1

In brackets after ≈: the same amount, converted by molar mass.

Experimental for α-glucosidase: The enzyme-inhibitory potential of the essential oil was evaluated by mixing different concentrations (0–100 μg/mL) against the respective enzymes and their substrates. The enzyme activities will be estimated in terms of the substrate utilized after incubation. The inhibition of α-amylase [75], α-glucosidase [76], aldose reductase [77] and sorbitol dehydrogenase [78] was carried out according to the methods previously described.

In the case of `O=C1O[C@H]([C@@H](O)CO)C(O)=C1O` [Ascorbic Acid], the “DPPH radical scavenging IC50” value in the assay “DPPH radical scavenging” came out at 8.13 ± 0.09 µg/mL. The results for the 50% inhibitory concentration (IC50) at sorbitol dehydrogenase and against aldose reductase were 341 µM and 163 µM, respectively. For the same compound, the “ABTS radical scavenging IC50” value in “ABTS radical scavenging” was determined as 12.82 ± 0.40 µg/mL. Also, on α-amylase, the “α-Amylase inhibition IC50” value worked out at 45.17 ± 2.36 µg/mL. Besides, in assay [1], the “H2O2 radical scavenging IC50” value amounted to 19.11 ± 0.26 µg/mL. Further, the “α-Glucosidase inhibition IC50” value at α-glucosidase stood at 36.03 ± 1.98 µg/mL. In addition, the “Lipid peroxidation inhibition IC50” value in [2] stood at 63.02 ± 0.33 µg/mL.
In the case of `CNC(C)C1CCC(N)C(OC2C(N)CC(N)C(OC3OCC(C)(O)C(NC)C3O)C2O)O1` (stereo not shown) [GM, gentamicin], the MIC was found to be 325 µg/mL (≈ 680 µM) against Escherichia coli [3]; 167 µg/mL (≈ 350 µM) in the assay with Salmonella enterica [6]; 325 µg/mL (≈ 680 µM) in the assay on Staphylococcus aureus [9]; 167 µg/mL (≈ 350 µM) against Streptococcus pyogenes [10]; 167 µg/mL (≈ 350 µM) in the assay with Pseudomonas aeruginosa [12]; 325 µg/mL (≈ 680 µM) with Bacillus cereus [13]. Besides, the “Zone of Inhibition” value in the assay on Salmonella enterica [4] was found to be 19.9 ± 0.3 mm; in the assay with Bacillus cereus [5] it was 21.3 ± 0.5 mm; in the assay with Streptococcus pyogenes [7] it was 19.2 ± 0.7 mm; in the assay on Escherichia coli [8], 21.3 ± 0.3 mm; in the assay with Staphylococcus aureus [11], 18.5 ± 0.5 mm.
On to `C=CC(C)(O)CCC=C(C)C` (stereo not shown) [Linalool], for which the “Zone of Inhibition” value in the assay on Pseudomonas aeruginosa [14] is reported as 19.3 ± 0.2 mm; in the assay with Salmonella enterica [4], 16.8 ± 0.3 mm; with Bacillus cereus [5] it was 17.6 ± 0.3 mm; in the assay with Streptococcus pyogenes [7] it was 17.9 ± 0.1 mm; with Escherichia coli [8], 17.8 ± 0.1 mm; in the assay with Staphylococcus aureus [11] it was 18.1 ± 0.2 mm. Also, the MIC in the assay with Escherichia coli [3] worked out at 625 ± 50 µg/mL (≈ 4050 µM); in the assay on Salmonella enterica [6] it was 325 µg/mL (≈ 2110 µM); against Staphylococcus aureus [9], 325 µg/mL (≈ 2110 µM); in the assay with Streptococcus pyogenes [10] it was 325 µg/mL (≈ 2110 µM); in the assay on Pseudomonas aeruginosa [12] it was 325 ± 100 µg/mL (≈ 2110 µM); against Bacillus cereus [13], 625 ± 100 µg/mL (≈ 4050 µM). Also, the “DPPH radical scavenging IC50” value in the assay “DPPH radical scavenging” was 35.22 ± 0.11 µg/mL. Further, the figures for the half-inhibitory concentration (IC50) against sorbitol dehydrogenase and on aldose reductase were 573 µM and 383 µM, respectively. Moreover, the “ABTS radical scavenging IC50” value in “ABTS radical scavenging” amounted to 40.01 ± 1.33 µg/mL. For the same compound, the “α-Amylase inhibition IC50” value on α-amylase came to 62.34 ± 2.91 µg/mL. For the same compound, the “H2O2 radical scavenging IC50” value in assay [1] came out at 38.09 ± 2.45 µg/mL. Also, on α-glucosidase, the “α-Glucosidase inhibition IC50” value was found to be 30.93 ± 3.41 µg/mL. Moreover, the “Lipid peroxidation inhibition IC50” value in [2] turned out to be 78.49 ± 3.07 µg/mL. In addition, the “Ferric-reducing potential IC50” value in assay [15] was 35.93 ± 0.24 µg/mL.

Usually IC50 stands for the concentration that gives 50% inhibition. Read a low IC50 as greater potency in that assay. For orientation: MIC means the smallest concentration in the dilution series that meets the test's criterion for growth inhibition. Read a low MIC as inhibition by little substance.
